Consider four molecules from patent US7368565B2, “Methods for preparation of cytotoxic conjugates of maytansinoids and cell binding agents” (Immunogen Inc., priority 2001, dated 2008).

In one data set the test system is L1210 cells. Conditions: L1210 cells treated in vivo; untreated control mitotic index 3.2 to 5.8%; cited from earlier work.
Data set [1] has as its system P388, L1210, and LY5178 murine leukemic cell suspensions. Conditions: in vitro; P388 line the most sensitive; cited from earlier work.
The test system of data set [2] is human acute lymphoblastic leukemia line CEM. Conditions: in vitro; cited from earlier work.
Data set [3] relates to human nasopharyngeal carcinoma cells. Conditions: cited from earlier work.
For data set [4], the system named is P388 lymphocytic leukemia system. Conditions: in vivo; suggested a high therapeutic index; cited from earlier work.
For data set [5], the system named is L1210 mouse leukemia system. Conditions: in vivo; cited from earlier work.
The subject of data set [6] is Lewis lung carcinoma system. Conditions: in vivo; cited from earlier work.
Data set [7] has as its system B-16 melanocarcinoma system. To be noted: in vivo; cited from earlier work.
For data set [8] the following is noted: more cytotoxic; cited from earlier work.
For data set [9], the system named is A431 cells constitutively expressing the antigen for huN901 (NCAM/CD56). Put plainly: in vitro cytotoxicity (colony formation) towards antigen-expressing cells. The format is cell-based, human. To be noted: 5 to 7 days incubation; for IC50: surviving fraction, FIG. 1, read-out: IC50 in killing antigen positive cells. Here is the method: The huN901-DM1 conjugates prepared by this new, one step method were evaluated for in vitro cytotoxicity towards antigen-expressing cells as follows. A clone of A431 cells constitutively expressing the antigen for huN901 (NCAM/CD56) were used in this assay. Cells were plated into 6-well tissue-culture treated plates at a density of 2×10^3 cells/well in 2 ml of DMEM medium supplemented with 10% fetal calf serum and penicillin+streptomycin. A huN901-DM1 conjugate or the control huN901 antibody was added to the wells at the time of plating, and the cultures were incubated in a tissue culture incubator at 37° C., 6% CO2, for 5 to 7 days to form colonies not smaller than 25 cells/colony. The plates were then washed with PBS, and then fixed/stained for 30 min at room temperature with 10% formaldehyde/0.2% (w/v) Crystal Violet in PBS. The wells were rinsed 3 times with water, dried by air, and the colonies were counted under a dissection low magnification microscope. The surviving fractions were calculated as the number of colonies in drug-treated well/number of colonies in non-treated well.

With `COc1cc2cc(c1Cl)N(C)C(=O)C[C@H](OC(=O)[C@H](C)N(C)C(C)=O)[C@]1(C)O[C@H]1[C@H](C)[C@@H]1C[C@@](O)(NC(=O)O1)[C@H](OC)/C=C/C=C(\C)C2` [maytansine], the “cells accumulating in mitosis” value in the data set with L1210 cells was 67%. In addition, the “doses at which cell suspensions were inhibited” value in [1] was 10^−3 to 10^−1 μg/μl. Further, the “concentrations at which the line was inhibited” value in [2] is recorded as ≥ 10^−7 mg/ml. In data set [3], the “inhibition of in vitro growth” value is recorded as “active inhibitor”. Also, the “dosage range over which tumor growth was inhibited” value in data set [4] was 50- to 100 fold. In addition, the inhibitory activity entry in [5], in data set [6] and in data set [7] was “significant inhibitory activity” each time. The “cytotoxicity relative to conventional cancer chemotherapeutic agents like methotrexate, daunorubicin, and vincristine” value in data set [8] is recorded as 100 to 1000 fold.

B1: huN901-DM1 conjugate (Sephadex G25): huN901 antibody conjugated in one step with maytansinoid 2, Sephadex G25 purified, average 2.08 DM1 per antibody (conjugate, chains of the INN, looked up)
VH: QVQLVESGGGVVQPGRSLRLSCAASGFTFSSFGMHWVRQAPGKGLEWVAYISSGSFTIYYADSVKGRFTISRDNSKNTLYLQMNSLRAEDTAVYYCARMRKGYAMDYWGQGTLVTVSS
VL: DVVMTQSPLSLPVTLGQPASISCRSSQIIIHSDGNTYLEWFQQRPGQSPRRLIYKVSNRFSGVPDRFSGSGSGTDFTLKISRVEAEDVGVYYCFQGSHVPHTFGQGTKVEIK
modifications: DM1 maytansinoid conjugate
notes: huN901 antibody conjugated in one step with maytansinoid 2, Sephadex G25 purified, average 2.08 DM1 per antibody
As a reminder, the IC50 is the concentration that inhibits the measured activity by half. For B1, in data set [9], the IC50 came out at 0.1 nM.

B2: huN901-DM1 conjugate (Sephacryl S300): huN901 antibody conjugated in one step with maytansinoid 2, Sephacryl S300 purified, average 1.61 DM1 per antibody (conjugate, chains of the INN, looked up)
VH: B1 VH
VL: B1 VL
modifications: DM1 maytansinoid conjugate
notes: huN901 antibody conjugated in one step with maytansinoid 2, Sephacryl S300 purified, average 1.61 DM1 per antibody
Take B2: the IC50 in data set [9] was 0.1 nM.

B3: huN901: control unconjugated antibody whose antigen is NCAM/CD56 (antibody, chains of the INN, looked up, V domains shown)
VH: B1 VH
VL: B1 VL
As for B3, the “toxicity to antigen positive cells” value in data set [9] (FIG. 1) was “non-toxic”.
